Source: patent US20240024347A1 (The Johns Hopkins University, priority 2020, published 2024)
Where two headings read alike, the source gives them in different places.

How the values were obtained:
[1] = system: murine NPcis (NF1^+/−;p53^+/−) tumor cells; assay: Tumor growth in murine sarcoma model (subcutaneous NPcis flank tumors); assay type: in vivo, mouse
Procedure: (§1) C57BL/6 mice at 10 weeks of age between 25 g and 30 g were obtained from Envigo. To induce solid tumor growth in animals, 3-5 million murine NPcis (NF1^+/−;p53^+/−) tumor cells grown and harvested from cell culture, were injected subcutaneously to the right flank. […] Animals were then randomly assigned to a treatment arm: Vehicle or MK-905 (n=10/group; average tumor volume of ˜200 mm^3). […] Tumor volume was calculated by the formula: volume=(L×(W^2))/2. […]

[2] = ALT (liver inflammation marker) and animal weight in sarcoma-model mice
Procedure: as §1

healthy NSG mice = conditions: for mice survived >2 weeks: 40 mg/kg group; for Mice surviving >2 weeks: 5 d/week, i.p., healthy female NSG mice, n=5/group
Procedure: Animal weights and body condition scores were measured three times per week. After twenty one days, surviving mice were euthanized and blood collected for clinical chemistry measurements (complete blood count with differential, clinical chemistries). […] 80% of mice survived >2 weeks in the MK-905 40 mg/kg group, and 100% of mice survived the study in the vehicle and MK-905 20 mg/kg groups.

[3] = system: NALM6-Luc-mCh-Puro human acute lymphoblastic leukemia; assay: In vivo antitumor efficacy, NALM6-Luc-mCh-Puro leukemia in female NSG mice (BLI); conditions: MK-905 40 then 20 mg/kg i.p./day, 6-MP 20 then 10 mg/kg i.p./day; for day 15 mean BLI signal: 5 days/week, vehicle 1.65×10^10; for percent of the median vehicle group tumor BLI signal: day 15
Procedure: (§2) The in vivo antitumor efficacy of MK-905 was evaluated in the NALM6-Luc-mCh-Puro human acute lymphoblastic leukemia in female NSG mice. Mice were inoculated with tumor cells on day 0, staged by BLI on day 3, and sorted into matched treatment groups. The primary endpoint of the study was tumor bioluminescence imaging (BLI) signal. Secondary endpoints included: animal survival, weight changes, and clinical pathology markers. Single timepoint drug metabolite testing was conducted after the first dose of MK-905. Studies were run in comparison to vehicle or 6-MP treatment.

[4] = Single timepoint drug metabolite testing (6-TGMP in mouse plasma) after first dose; assay type: in vivo; conditions: two hours following initial dose
Procedure: as §2

Structure (SMILES)	mean tumor volume ([1]; 6-MP 20 mg/kg i.p., following ten days of dosing, vehicle 2,038 mm^3)	blood ALT increase compared to vehicle-treated mice ([2]; at sacrifice, 6-MP 20 mg/kg i.p., ten days)	blood ALT as a marker of liver inflammation ([2]; at sacrifice, 6-MP 20 mg/kg i.p., ten days, vehicle 20 U/L) [U/L]	mice survived >2 weeks (healthy NSG mice; healthy NSG mice)	day 15 mean BLI signal [3]	percent of the median vehicle group tumor BLI signal [3] [%]	conversion to the active 6-thioguanine monophosphate (6-TGMP) metabolite [4]	mean tumor volume ([1]; MK-905 13 mg/kg i.p., following fourteen days of dosing, vehicle 1,657 mm^3) [mm^3]	Tumor weights at sacrifice ([1]; MK-905 13 mg/kg i.p., fourteen days, vehicle 1276 mg) [mg]	Animal weights relative to starting weight ([2]; MK-905 13 mg/kg i.p., fourteen days) [%]	Serum ALT as a marker of liver inflammation (in words) ([2]; MK-905 13 mg/kg i.p., fourteen days, versus vehicle)	mice survived the study (healthy NSG mice; 20 mg/kg group, healthy NSG mice, twenty one days) [%]	Mice surviving >2 weeks (healthy NSG mice; 20 mg/kg)	Mice surviving >2 weeks (healthy NSG mice; 40 mg/kg)
Sc1ncnc2nc[nH]c12 [6-MP, 6-mercaptopurine, reference compound]	1,107 mm^3	two-fold increased	46	no mice surviving	1.36×10^10 photons/sec	77	no active metabolite was observed	–	–	–	–	–	–	–
CC(C)OC(=O)[C@H](C)NP(=O)(OC[C@H]1OC(n2cnc3c(=S)[nH]c(N)nc32)C(O)C1O)Oc1ccccc1 (stereo partly drawn) [MK-905]	–	–	–	80%	3.27×10^8 photons/sec	1.3	observed	415	359	≤ 10	normal and not significantly different	100	5/5	4/5
